The values below come from patent publication US10413529B2, “Methods of inhibiting cataracts and presbyopia” (UNIVERSITY OF MASSACHUSETTS, priority 2013, dated 2019).

The target in this experiment is T1, γS-crystallin (Homo sapiens, UniProt P22914).
T1 construct: 6xHis (N); made in house; host or cells: M15pRep E. coli (pQe1 plasmid from King Labs, MIT)
T1 sequence (P22914 1-178): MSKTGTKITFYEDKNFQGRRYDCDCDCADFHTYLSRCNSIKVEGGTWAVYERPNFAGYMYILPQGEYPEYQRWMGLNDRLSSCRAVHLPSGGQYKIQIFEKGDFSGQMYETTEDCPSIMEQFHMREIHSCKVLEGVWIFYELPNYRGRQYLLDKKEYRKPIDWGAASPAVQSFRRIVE
In words: Dynamic light scattering (DLS) of γS-crystallin, hydrodynamic radius of monomer and aggregate. The class given is biochemical. The conditions noted are these: γS modified with the agent. The protocol:
The scattering wave vector is defined as q=4πn sin (θ/2)/λ, where θ is the scattering angle, and λ=514.5, the wavelength of the argon laser in vacuum, and n is 1.33, the refractive index of water. The temperature of the sample was held at constant temperature of 4 to 37±0.1° C. by a circulating water bath. The correlation function was analyzed using CONTIN analysis [NT] times for the correlation functions at measured angles. […] The delay times (τ) were converted to Γ and graphed versus q^2. The slope of the fitted line is the diffusion coefficient (D). […] All solutions were filtered with 0.22 μm hydrophobic PVDF membranes (Fisher Scientific) into 10 mm diameter borosilicate glass tubes and sealed. Solutions were allowed to equilibrate for thirty minutes prior to measuring light scattering. […] The pH and salt concentration were adjusted via overnight dialysis at 4° C. and their final concentration adjusted to 1.0 g/L. […] The scattering wave vector is defined as q=4πn sin (θ/2)/λ, where θ is the scattering angle, and λ=514.5, the wavelength of the argon laser in vacuum, and n is 1.33, the refractive index of water. The temperature of the sample was held at constant temperature of 4 to 37±0.1° C. by a circulating water bath. The correlation function was analyzed using CONTIN analysis [NT] times for the correlation functions at measured angles. […] The delay times (τ) were converted to Γ and graphed versus q^2. The slope of the fitted line is the diffusion coefficient (D). […] All solutions were filtered with 0.22 μm hydrophobic PVDF membranes (Fisher Scientific) into 10 mm diameter borosilicate glass tubes and sealed. Solutions were allowed to equilibrate for thirty minutes prior to measuring light scattering.

For `NCCOCCOCCOCCOCCC(=O)O` [CAPEG4], the Rh is, setting by setting: (fast mode (monomer), 37° C.) 3 nm; (fast mode (monomer), 37° C., listed as CAPEG) 2.9 nm; (fast mode (monomer, first Rh column), 22° C.) 2.8 nm; (fast mode (monomer, first Rh column), 22° C., listed as CAPEG) 2.9 nm.
